{"source": "patent US20230390226A1", "about": "(PaxMedica, Inc., priority 2021, published 2023)", "type_in_all_cases": "in vivo, mouse", "key": {"[1]": {"system": "B6.129P2-Fmr1tm1Cgr/J transgenic (TG) mice", "assay": "Light/dark preference test (LDT), anxiety-like behavior", "procedure": "• 1. N=6 mice per group. • 2. All behavioral testing included a group of untreated wild type controls. • 3. Dosing for the various groups were as follows: • a. […] Group 2: IP saline, […], administered weekly to animals beginning at 9 weeks of age and continuing for four weeks (i.e. given at Age Weeks 9, 10, 11 and 12). • c. […] Behavioral tests for all groups (Groups 1-5) began the following day after the last day of IN dosing (Weeks 13-14 of age). • 5. Blood samples (PK testing) were collected from all mice at the end of 12 Weeks of age, just prior to starting the behavioral tests in Week 13. • 6. Brain tissue (for biochemistry testing) was harvested from all mice upon sacrifice at the conclusion of all behavioral testing at the end of 13-14 Weeks of age.\n(§1) Male B6.129P2-Fmr1tm1Cgr/J TG mice were purchased from Jackson Laboratories, Bar Harbor, Maine. These mice were of approximately 8(+1) weeks of age. Mice were maintained in group cages (6 mice per cage based on treatment group) in a controlled environment (temperature: 21.5±4.5° C./relative humidity: 35-55%) under a standard 12-hour light/12-hour dark lighting cycle (lights on at 06:00). Mice accommodated to the research facility for the remainder of the week. Dosing began on the following Monday. Body weights of all mice were recorded for health monitoring purposes.\nDosing was carried out over the course of 28 days as instructed by the study sponsor. • 1. Prior to the beginning of the light/dark test, a dark box (red transparent enclosure with an opening for the mouse to enter) is placed in the SmartCage™ • 2. An individual mouse is placed in the open/non-dark box side (“Light Zone”), with its head facing away from the dark box. • 3. The mouse is then allowed to freely explore the SmartCage™ and enter the dark box “Dark Zone” at its own discretion over a 10-minute span. • 4. Anxiety-like behavior is assessed based on the SmartCage™ monitoring of time spent in the Light Zone, the number of Light Zone entries, and % Time Spent in the Light Zone. • 5. […]"}, "[2]": {"system": "B6.129P2-Fmr1tm1Cgr/J transgenic (TG) mice", "assay": "Locomotor activity test (SmartCage)", "procedure": "(§2) • 1. N=6 mice per group. • 2. All behavioral testing included a group of untreated wild type controls. • 3. Dosing for the various groups were as follows: • a. […] Group 2: IP saline, […], administered weekly to animals beginning at 9 weeks of age and continuing for four weeks (i.e. given at Age Weeks 9, 10, 11 and 12). • c. […] Behavioral tests for all groups (Groups 1-5) began the following day after the last day of IN dosing (Weeks 13-14 of age). • 5. Blood samples (for PK testing) were collected from all mice at the end of Week 12 of age, just prior to starting the behavioral tests in Week 13 of age. • 6. Brain tissue (for biochemistry testing) was harvested from all mice upon sacrifice at the conclusion of all behavioral testing at the end of Week 13-14 of age.\nMale B6.129P2-Fmr1tm1Cgr/J TG (TG) mice were purchased from Jackson Laboratories, Bar Harbor, Maine. These mice were of approximately 8(+1) weeks of age. […] Body weights of all mice were recorded for health monitoring purposes.\nDosing was carried out over the course of 28 days as instructed by the study Sponsor. […] Day 1 to Day 2: Locomotor Activity recording is assessed using the SmartCage™ • 2. […]\nEach mouse was placed in a clean plastic, transparent home cage within the SmartCage™. […] Active Time, Travel Distance, and Rearing Activity were assessed for each mouse. Data analyzed based on treatment group."}, "[3]": {"system": "B6.129P2-Fmr1tm1Cgr/J transgenic (TG) mice", "assay": "Step through passive avoidance test, learning and memory", "procedure": "as §2, with “type (WT)” for “type”\nas §1, with “TG (TG)” for “TG”, “8 (±1)” for “8(+1)”, “12 hour light/12 hour” for “12-hour light/12-hour”\nDosing was carried out over the course of 28 days as instructed by the study Sponsor. The fifth and final behavioral test, the Step Through (ST) Passive Avoidance Test, was performed over two days (days 38 and 39) with the first day as a Training Day and the second day as a Test Day. Passive avoidance is fear-motivated tests classically used to assess short-term or long-term memory on rodents. […] The mouse is then allowed to freely explore the SmartCage™ and enter the dark box “Dark Zone” at its own discretion; dark box entry latency is automatically recorded. • 4. […] The mouse may freely explore the SmartCage™ for 5 minutes, and avoidance of the Dark Box due to contextual-fear association is assessed. • 8. […]"}}}
{"smiles": "Cc1ccc(C(=O)Nc2ccc(S(=O)(=O)O)c3cc(S(=O)(=O)O)cc(S(=O)(=O)O)c23)cc1NC(=O)c1cccc(NC(=O)Nc2cccc(C(=O)Nc3cc(C(=O)Nc4ccc(S(=O)(=O)O)c5cc(S(=O)(=O)O)cc(S(=O)(=O)O)c45)ccc3C)c2)c1", "note": "[suramin, 1,3,5-Naphthalenetrisulfonic acid, 8,8′-[carbonylbis[imino-3,1-phenylenecarbonylimino(4-methyl-3,1-phenylene)carbonylimino]]bis-]", "values": [{"measurement": "percentage of time spent in the light zone", "setting": "[1]; IN weekly for 4 weeks", "result": "higher percentage of time spent in the Light Zone"}, {"measurement": "total time spent in the light zone", "setting": "[1]; IN weekly for 4 weeks, 10-minute test", "result": "~6.5", "unit": "min"}, {"measurement": "dark zone entry latency", "setting": "[1]; all IN groups (daily, every other day, weekly)", "result": "60 to 65", "unit": "s"}, {"measurement": "active time", "setting": "[2]; IN daily, weekly and every 2 days, ~24 h recording", "result": "greater activity compared to the WT control group"}, {"measurement": "rearing count", "setting": "[2]; IN every 2 days", "result": "comparable to the WT control group"}, {"measurement": "dark zone entry latency", "setting": "[3]; Test Day, IP 20 mg/kg weekly", "result": "shortest latency"}, {"measurement": "percentage of time spent in the light zone", "setting": "[3]; test day, IN groups", "result": "greater than 70%"}, {"measurement": "total light zone time", "setting": "[3]; test day, IP 20 mg/kg weekly", "result": "lower total time"}]}
